In PubChem BioAssay (NCI):
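Five compound concentrations were applied to cells in 96-well plates for 48 hours; endpoints were derived by simple linear interpolation of the resulting dose-response curve. TGI: total growth inhibition.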

Experiments:
Assay in all cases: DTP human tumour cell line panel, 48 h
MALME-3M melanoma = tested on: MALME-3M melanoma
PC-3 prostate = tested on: PC-3 prostate
HCT-15 colon = tested on: HCT-15 colon
A549 NSCLC = tested on: A549 NSCLC
SR leukemia = tested on: SR leukemia
OVCAR-8 ovarian = tested on: OVCAR-8 ovarian
RXF 393 renal = tested on: RXF 393 renal
NCI-H23 lung = tested on: NCI-H23 lung
HOP-92 NSCLC = tested on: HOP-92 NSCLC
T-47D breast = tested on: T-47D breast

SMILES | TGI (MALME-3M melanoma) | TGI (PC-3 prostate) | TGI (HCT-15 colon) | TGI (A549 NSCLC) | TGI (SR leukemia) | TGI (OVCAR-8 ovarian) | TGI (RXF 393 renal) | TGI (NCI-H23 lung) | TGI (HOP-92 NSCLC) | TGI (T-47D breast)
C[C@H]1COC2=C1C(=O)C(=O)c1c2ccc2c1CCCC2(C)C | 2.07 µM | > 64.5 µM | 18.6 µM | 4.55 µM | > 42.7 µM | 22.9 µM | 55.6 µM | 3.57 µM | > 100 µM | > 100 µM
Oc1cc(Br)cc2cc(Cl)cnc12 | 30 µM | > 100 µM | > 100 µM | > 56.1 µM | > 30.2 µM | > 40.6 µM | 15.2 µM | 48.2 µM | > 100 µM | 16.7 µM
Cc1c(C(=O)O)n2cnnc2c2ccccc12 | – | > 100 µM | > 100 µM | > 100 µM | > 100 µM | > 100 µM | > 100 µM | > 100 µM | > 100 µM | > 100 µM
CCOC(=O)C(NC(=O)OC(C)(C)C)C(=O)OCC | – | > 100 µM | > 100 µM | > 100 µM | > 100 µM | > 100 µM | > 100 µM | > 100 µM | > 100 µM | > 100 µM
CN1CCN(C2=CC(=O)c3c(O)ccc(O)c3C2=O)CC1 | 0.592 µM | > 10 µM | – | 3.5 µM | 8.1 µM | – | 2.93 µM | 2.8 µM | 3.29 µM | 2.04 µM
NC1CC=C(COC(=O)C(O)(c2ccccc2)C2CC2)CC1 (stereo unspecified) | > 100 µM | > 100 µM | > 100 µM | > 100 µM | > 100 µM | > 100 µM | > 100 µM | > 100 µM | – | > 100 µM
CCOC(=O)[C@@H]1ON2OC(OC3CCCC3(c3ccccc3)c3ccccc3)C(OC(C)=O)[C@H]3OC(=O)[C@@H]1C32 (stereo partly specified) | – | > 100 µM | > 100 µM | > 100 µM | > 100 µM | > 100 µM | 84.2 µM | > 100 µM | > 100 µM | > 100 µM
Cc1ccc(N=C2C(=Nc3ccc(C)cc3)N(c3ccc(C)cc3)C(=S)N2C(=O)c2ccccc2)cc1 | > 100 µM | > 100 µM | > 100 µM | > 100 µM | > 100 µM | – | > 100 µM | > 100 µM | > 100 µM | > 100 µM
CC(=O)OC1COC(Nc2nc(N)n(C)c(=O)c2N=O)C(OC(C)=O)C1OC(C)=O (stereo unspecified) | > 10 µM | > 10 µM | – | > 10 µM | > 10 µM | > 10 µM | > 10 µM | > 10 µM | > 10 µM | > 10 µM
Oc1ccc(Cl)cc1C1=NC(/N=C\c2ccccc2)=NC(c2ccccc2)C1 (stereo unspecified) | – | > 100 µM | – | > 100 µM | 45 µM | > 100 µM | > 100 µM | > 100 µM | > 100 µM | > 100 µM
CC(=O)/C(=C/N1CCNC1=S)C(=O)Nc1ccccc1C | – | > 100 µM | > 100 µM | > 100 µM | > 100 µM | > 100 µM | > 100 µM | > 100 µM | > 100 µM | > 100 µM
CN(Cc1cc(Cl)c(Cl)cc1NC(=O)CN)[C@H]1CCCC[C@@H]1N1CCCC1 | 33.6 µM | > 100 µM | – | > 100 µM | 49.9 µM | > 100 µM | > 100 µM | > 100 µM | > 100 µM | > 100 µM
O=[N+]([O-])c1cccc2nccc(NCCCO)c12 | 22.1 µM | 69.8 µM | 21.2 µM | 49 µM | 44.2 µM | 37.3 µM | 21.5 µM | 27.1 µM | – | 79.7 µM
NC(N)=NCCCC(NC(=O)OCCCCn1ccc(N)nc1=O)C(=O)O (stereo unspecified) | – | > 100 µM | > 100 µM | > 100 µM | > 100 µM | – | > 100 µM | > 100 µM | > 100 µM | > 100 µM
CC1=NN(c2nc(N)nc(CF)n2)C(C)(C)C1 | – | > 100 µM | > 100 µM | – | > 100 µM | > 100 µM | > 100 µM | > 100 µM | > 100 µM | > 100 µM
Cc1cc(S(=O)(=O)/N=C(/NN)NNc2cccc(C(F)(F)F)n2)c(S)cc1Cl | 42.1 µM | 50.7 µM | 38.2 µM | 44.1 µM | 55.1 µM | 58.3 µM | 57.2 µM | – | 23.8 µM | 40.7 µM
CCN1CCC(O)(/C=C/c2ccc(OC)cc2)C(C(=O)/C=C/c2ccc(OC)cc2)C1 (stereo unspecified) | 32.8 µM | 23.5 µM | – | 34 µM | 26.4 µM | – | 11.9 µM | 27.9 µM | 21.3 µM | 24.1 µM
O=C(CSc1nc2ccccc2c(=O)n1-c1ccccc1)N=Nc1c(O)[nH]c2ccc(F)cc12 | – | 3.77 µM | – | 21.6 µM | 4.21 µM | – | 4.09 µM | 9.21 µM | 4.17 µM | 3.97 µM
C=CC(C)(C)C(=C)C(=O)Nc1ccccc1I | – | > 100 µM | > 100 µM | > 100 µM | > 100 µM | > 100 µM | > 100 µM | > 100 µM | > 100 µM | > 100 µM
